# In patent US8043623B2, “Immunogenic peptides for the treatment of prostate and breast cancer” (The Government of the United States of America as …, priority 2003, dated 2011):
# Entries after “also recorded” stand apart in the source; their conditions may differ.
# Experiments:
# [1] = test system: CD8^+ T cells; experiment: In vitro human CD8^+ T cell priming with peptide-pulsed DC; assay type: cell-based; settings: CD8^+ T cells of an HLA-A2.1-positive prostate cancer patient, peptide-pulsed autologous DC
# Description: (§1) In vitro human CD8^+ T cell priming with DC. Elutriated monocytes and lymphocytes were obtained from HLA-A2.1-positive patients or normal donors. To prepare DC, monocytes were cultured at 10^6 cells/ml in complete medium containing human IL-4 (1000 units/ml) and human GM-CSF (1000 units/ml). On day 2 and 4, half of the media was exchanged. To mature the DC, CD40 ligand trimer (Immunex, Seattle, Wash.) was added at 1 μg/ml on day 4 or 5, and then further cultured for 2 or 3 days. Cells were harvested on day 7, and then pulsed with 10 μM of peptides for 2 hours before γ-irradiation. 1×10^5 peptide-pulsed DC and 2×10^6 autologous CD8^+ T cells were mixed and cultured in 24-well plates. 10 units/ml IL-2 was added on day 2 during restimulation. Cells were restimulated every 7-9 days approximately 4-7 cycles.
# [2] = test system: peptide-pulsed C1R-A2.1 target cells; experiment: Human CTL 5-hour ^51Cr release assay on peptide-pulsed targets; assay type: cell-based
# Description: as §1
# (§2) CTL assay. For murine CTL, CD8^+ T cells from the immunized mice were restimulated with peptide-loaded splenocytes for one week as previously described (Oh et al., J Immunol 170:2523, 2003), and then applied to 5 hour ^51Cr release assays. Target cells were labeled with ^51Cr first and washed twice. Cells were then pulsed with peptides for 2 hours and used as target cells without further washing. For human CTL, target cells were also labeled with ^51Cr first, and then loaded with peptides. In the CTL assay against human tumor cells, target cells were incubated in the complete medium containing 1000 units/ml IFN-γ for 72 hours. The mean of triplicate samples was calculated, and the percentage of specific lysis was determined using the following formula: Percentage of specific lysis=100×[(experimental ^51Cr release−control ^51Cr release)/(maximum ^51Cr release−control ^51Cr release)]. The maximum release refers to counts from targets in 2.5% Triton X-100.
# [3] = test system: MCF-7; experiment: CTL assay against human tumor cells (MCF-7); assay type: cell-based; settings: 50:1 E/T ratio, targets pre-incubated with IFN-γ 72 hours
# Description: as §1, §2
# [4] = biological target: T1, HLA-A2.1 molecules (Homo sapiens, UniProt P04439, D140Y/D185E/D98H/E176V/E277Q/G131W/G231S/I119V/I121R/I166T/I218V/L300P/L318F/N151K/N90K/P208A/P217A/Q86G/Q94H/R138H/R169H/T345S); experiment: T2-binding assay; settings: T2 cells
# T1 construct: The T2 cell line is deficient in TAP1 and TAP2 transporter proteins and expresses low levels of HLA-A2.1; endogenous in cells; host or cells: T2 cell line (TAP1/TAP2-deficient)
# Description: T2-binding assay. Peptide binding capacity to HLA-A2.1 molecules was measured by using the T2 cell line according to a protocol previously described (Nijman et al., Eu. J. Immunol. 23:1215, 1993). T2 cells (3×10^5/well) were incubated overnight in 96-well plates with culture medium (1:1 mixture of RPMI 1640/EHAA containing 2.5% FBS, 100 U/ml penicillin, 100 μg/ml streptomycin) with 10 μg/ml β2-microglobulin (Sigma) and different concentrations of peptide. Cells were washed twice with cold PBS containing 2% FBS and incubated for 30 minutes at 4° C. with anti-HLA-A2.1 BB7.2 mAb ( 1/80 dilution from hybridoma supernatant). After washing, cells were stained with FITC-labeled goat anti-mouse Ig (PharMingen, San Diego, Calif.) and the level of HLA-A2.1 expression was measured by flow cytometry. HLA-A2.1 expression was quantified as fluorescence index (FI) according to the formula: FI=(mean fluorescence intensity with peptide-mean fluorescence intensity without peptide)/mean fluorescence intensity without peptide.
# [5] = test system: A2K^b transgenic mice; experiment: Immunization of A2K^b transgenic mice; murine CTL assay and intracellular IFN-γ staining; assay type: in vivo
# Description: Immunizations. A2K^b transgenic mice were immunized with syngeneic peptide-loaded dendritic cells (DC), plasmid DNA expressing TARP, or the mixture of peptide and cytokine in incomplete Freund's adjuvant (IFA). For DC immunization, DC were pulsed with 10 μM peptide in serum-free RPMI for 2 hours at 37° C., and then mice were immunized subcutaneously (s.c.) with 1-3×10^5 DC without washing. DC were prepared from bone marrow as previously described (Celluzzi et al. J. Exp. Med. 183:283, 1996). Alternatively, mice were immunized intramuscularly with 100 μg plasmid DNA, pcDNA5/FRT/TARP, generated by inserting the TARP DNA into the pcDNA5/RFT (Invitrogen, Carlsbad, Calif.) vector. Mice were also immunized subcutaneously (s.c.) in the base of the tail with 100 μl of an emulsion containing 1:1 IFA and PBS with antigens and cytokines (50 nmol CTL epitope, 50 nmol HBV core 128-140 helper epitope, 3 μg of IL-12, and 5 μg of granulocyte macrophage colony stimulating factor (GM-CSF). IFA and cytokines were purchased from Sigma and Peptotech (Rocky Hill, N.J.), respectively.
# as §2
# Antibody and flow cytometry. FITC-labeled anti-mouse CD8 (53-6.7), CD11c, CD80 (B7-1), CD54 (ICAM-1), anti-human CD8 (RPA-T8), CD14 (M5E2), CD80 (B7-1), and CD86 (B7-2) were used for staining of cell surface molecules. For intracellular IFN-γ staining, cells were stained by following the manufacturer's protocol. All Abs and reagents were purchased from PharMingen. For flow cytometric analysis of cell surface, 5×10^5 cells were washed and resuspended in PBS containing 0.2% BSA and 0.1% sodium azide. Cells were incubated on ice with the appropriate antibody for 30 minutes and then washed. Samples were analyzed on a FACScan (BD Biosciences, Mountain View, Calif.). Background staining was assessed by use of an isotype control antibody. For tetramer staining, cells were incubated with FITC-labeled anti-CD8 for 10 minutes, and then stained with tetramers.
sequence,measurement,setting,value
FLRNFSLMV (TARP peptide with a L9V substitution.) [TARP-29-37-9V],cycles of in vitro restimulation needed to detect peptide-specific CD8^+ T cells,[1],at least five cycles
same,recognition of TARP-27-35 by human CTL raised with the peptide,[2]; C1R-A2.1 targets,to some extent
same,"cross-reactivity of human CD8^+ CTL raised with the peptide to other peptides (wild-type TARP-29-37, enhanced epitopes)",[2]; C1R-A2.1 targets pulsed with 10 μM peptides,"could recognize both wild-type and TARP-29-37-3A comparably; also recorded: killed the wild-type peptide (TARP-29-37, SEQ ID NO: 5)-pulsed target cells efficiently; also recorded: to a similar degree to the immunogen"
same,peptide concentration at which CTLs specific for TARP-29-37-9V recognize targets pulsed with the named peptide (avidity),"[2]; label = peptide pulsed on targets, effector = TARP-29-37-9V-specific human CTL",0.001 µM
same,lytic activity against MCF-7 of CD8^+ CTL specific for the peptide,[3],higher lytic activity against MCF-7; also recorded: could kill human tumor cells
same,binding affinity to HLA-A2.1 molecules compared with another peptide,[4],lower binding affinity to HLA-A2.1 than TARP-29-37-3A; also recorded: did enhance the binding affinity of wild-type peptide
same,cross-reactivity of murine CD8^+ CTL induced with the peptide: recognition of wild-type TARP-29-37 and other peptides on pulsed targets,"[5]; Jurkat-HLA-A2 targets pulsed with peptides, ^51Cr release",slightly more potent in killing targets pulsed with wild-type TARP-29-37; also recorded: most immunogenic of the peptides in inducing CTLs specific for the wild-type sequence
same,killing of target cells pulsed with TARP-27-35 by murine CTL induced with the peptide,[5]; ^51Cr release,could also kill target cells pulsed with TARP-27-35
same,"frequency of CD8^+ T cells specific for the individual peptide, compared to wild-type TARP-29-37","[5]; mice immunized s.c. with peptide and cytokine in adjuvant, IFN-γ staining",almost two-fold higher frequencies of CD8^+ T cells; also recorded: higher level of CD8^+ T cell responses than TARP-29-37
